The results in this text go back to the NIST ThermoML archive (doi:10.1016/j.fluid.2017.05.010).

Each structure is given as a SMILES string. Numbers after ± are expanded uncertainties.

For the series the following is noted: Liquid; Resistive pulse heating.
As for `CCc1ccccn1` [2-ethylpyridine], the Critical pressure is recorded as 3810 ± 110 kPa and the Critical temperature came to 628 ± 6 K.
For `CCc1ccc(C)nc1` [3-ethyl-6-methylpyridine], in that order: 3250 ± 100 kPa and 656 ± 7 K.
As for `CCc1cccnc1` [3-ethylpyridine], the Critical pressure is on record as 4190 ± 130 kPa and the Critical temperature is 651 ± 7 K.
Take `CCc1ccncc1` [γ-ethylpyridine]: the Critical pressure is 4190 ± 130 kPa and the Critical temperature turned out to be 653 ± 7 K.
